Data taken from patent publication US7632933B2, “Corticotropin releasing factor 2 receptor agonists” (priority 2002, dated 2009).
pEC50: −log10 of the molar value. Peptide text beside a SMILES is read from it.

Key:
CRF1R = molecular target: T1, CRF1R (Homo sapiens, UniProt P34998); test: CRF1R agonist activity (EC50 and Emax), called comparative CRF binding; format: cell-based; details: CRF1R; read-out: CRF1R EC50
T1 sequence (P34998 24-415): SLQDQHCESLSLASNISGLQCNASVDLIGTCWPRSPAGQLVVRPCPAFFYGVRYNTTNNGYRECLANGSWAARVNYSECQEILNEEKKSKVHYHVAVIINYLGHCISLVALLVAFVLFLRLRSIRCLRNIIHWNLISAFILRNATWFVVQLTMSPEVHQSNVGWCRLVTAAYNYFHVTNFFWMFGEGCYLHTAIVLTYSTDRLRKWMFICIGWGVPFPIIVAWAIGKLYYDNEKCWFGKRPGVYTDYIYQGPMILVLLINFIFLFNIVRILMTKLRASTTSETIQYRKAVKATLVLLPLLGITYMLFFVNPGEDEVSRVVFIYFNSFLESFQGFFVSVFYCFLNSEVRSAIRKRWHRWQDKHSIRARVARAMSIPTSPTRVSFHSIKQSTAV
In short: (§1)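 Cells expressing only CRF1R or CRF2R (or recombinant receptor) were contacted with peptide or vehicle control. Receptor activation was measured as cAMP induction in cell lysates or via a cAMP-responsive-element reporter gene.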

CRF2R = molecular target: T2, CRF2R (Homo sapiens, UniProt Q13324); test: CRF2R agonist activity (EC50 and Emax), called comparative CRF binding; format: cell-based; details: CRF2R; read-out: CRF2R EC50
T2 sequence (Q13324 1-411): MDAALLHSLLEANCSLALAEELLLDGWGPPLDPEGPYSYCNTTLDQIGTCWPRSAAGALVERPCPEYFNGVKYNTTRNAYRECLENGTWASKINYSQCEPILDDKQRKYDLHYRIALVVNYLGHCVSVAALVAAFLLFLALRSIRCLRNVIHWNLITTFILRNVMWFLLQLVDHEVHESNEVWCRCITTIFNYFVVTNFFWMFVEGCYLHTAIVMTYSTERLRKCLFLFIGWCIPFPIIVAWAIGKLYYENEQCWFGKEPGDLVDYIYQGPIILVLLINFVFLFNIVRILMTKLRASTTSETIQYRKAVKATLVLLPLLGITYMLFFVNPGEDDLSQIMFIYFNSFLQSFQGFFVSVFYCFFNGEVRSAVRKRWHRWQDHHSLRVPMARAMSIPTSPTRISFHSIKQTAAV
In short: as §1

SMILES	pEC50 (CRF1R)	pEC50 (CRF2R)
CC[C@H](C)[C@H](NC(=O)[C@H](C)NC(=O)[C@H](CC(N)=O)NC(=O)[C@H](CCC(N)=O)NC(=O)[C@H](CCC(=O)O)NC(=O)[C@H](C)NC(=O)[C@H](CCCNC(=N)N)NC(=O)[C@H](CCC(=O)O)NC(=O)[C@H](CCCNC(=N)N)NC(=O)[C@H](CCC(N)=O)NC(=O)[C@H](CO)NC(=O)[C@H](CCC(N)=O)NC(=O)[C@@H](NC(=O)[C@H](CCCNC(=N)N)NC(=O)[C@H](C)NC(=O)[C@H](CC(C)C)NC(=O)[C@H](CCC(=O)O)NC(=O)[C@H](CC(C)C)NC(=O)[C@H](CC(C)C)NC(=O)[C@@H](NC(=O)[C@H](CCCNC(=N)N)NC(=O)[C@H](CC(C)C)NC(=O)[C@H](CC(C)C)NC(=O)[C@H](Cc1ccc(O)cc1)NC(=O)[C@@H](NC(=O)[C@@H]1CCCN1C(=O)[C@H](CC(C)C)NC(=O)[C@H](CC(=O)O)NC(=O)[C@@H](NC(=O)[C@H](CO)NC(=O)[C@H](CC(C)C)NC(=O)[C@H](CO)NC(=O)[C@@H]1CCCN1C(=O)[C@H](CC(N)=O)NC(=O)[C@@H](N)CC(=O)O)[C@@H](C)CC)[C@@H](C)O)[C@@H](C)O)[C@@H](C)O)C(=O)N[C@H](C(=O)N[C@@H](Cc1ccccc1)C(=O)N[C@@H](C)C(=O)N[C@@H](CO)C(=O)N[C@H](C(N)=O)C(C)C)[C@@H](C)CC [compound 173] (H-DNPSLSIDLPTYLLRTLLELARTQSQRERAEQNAIIFASV-NH2)	≤ 6.00	≤ 7.00
CC[C@H](C)[C@H](NC(=O)[C@H](C)NC(=O)[C@H](CC(N)=O)NC(=O)[C@H](CCC(N)=O)NC(=O)[C@H](CCC(=O)O)NC(=O)[C@H](C)NC(=O)[C@H](CCCNC(=N)N)NC(=O)[C@H](CCC(=O)O)NC(=O)[C@H](CCCNC(=N)N)NC(=O)[C@H](CCC(N)=O)NC(=O)[C@H](CO)NC(=O)[C@H](CCC(N)=O)NC(=O)[C@@H](NC(=O)[C@H](CCCNC(=N)N)NC(=O)[C@H](C)NC(=O)[C@H](CC(C)C)NC(=O)[C@H](CCC(=O)O)NC(=O)[C@H](CC(C)C)NC(=O)[C@H](CC(C)C)NC(=O)[C@@H](NC(=O)[C@H](CCCNC(=N)N)NC(=O)[C@H](CC(C)C)NC(=O)[C@H](CC(C)C)NC(=O)[C@H](Cc1ccccc1)NC(=O)[C@H](Cc1ccccc1)NC(=O)[C@@H]1CCCN1C(=O)[C@H](CC(C)C)NC(=O)[C@H](CC(=O)O)NC(=O)[C@@H](NC(=O)[C@H](CO)NC(=O)[C@H](CC(C)C)NC(=O)[C@H](CO)NC(=O)[C@@H]1CCCN1C(=O)[C@H](CC(N)=O)NC(=O)[C@@H](N)CC(=O)O)[C@@H](C)CC)[C@@H](C)O)[C@@H](C)O)C(=O)N[C@H](C(=O)N[C@@H](Cc1ccccc1)C(=O)N[C@@H](C)C(=O)N[C@@H](CO)C(=O)N[C@H](C(N)=O)C(C)C)[C@@H](C)CC [compound 184] (H-DNPSLSIDLPFFLLRTLLELARTQSQRERAEQNAIIFASV-NH2; N-terminus assumed)	6.31	8.43
CC[C@H](C)[C@H](NC(=O)[C@H](C)NC(=O)[C@H](CC(N)=O)NC(=O)[C@H](CCC(N)=O)NC(=O)[C@H](CCC(=O)O)NC(=O)[C@H](C)NC(=O)[C@H](CCCNC(=N)N)NC(=O)[C@H](CCC(=O)O)NC(=O)[C@H](CCCNC(=N)N)NC(=O)[C@H](CCC(N)=O)NC(=O)[C@H](CO)NC(=O)[C@H](CCC(N)=O)NC(=O)[C@@H](NC(=O)[C@H](CCCNC(=N)N)NC(=O)[C@H](C)NC(=O)[C@H](CC(C)C)NC(=O)[C@H](CCC(=O)O)NC(=O)[C@H](CC(C)C)NC(=O)[C@H](CC(C)C)NC(=O)[C@@H](NC(=O)[C@H](CCCNC(=N)N)NC(=O)[C@H](CC(C)C)NC(=O)[C@H](CC(C)C)NC(=O)[C@H](Cc1ccc(O)cc1)NC(=O)[C@H](CCC(N)=O)NC(=O)[C@@H]1CCCN1C(=O)[C@H](CC(C)C)NC(=O)[C@H](CC(=O)O)NC(=O)[C@@H](NC(=O)[C@H](CO)NC(=O)[C@H](CC(C)C)NC(=O)[C@H](CO)NC(=O)[C@@H]1CCCN1C(=O)[C@H](CC(N)=O)NC(=O)[C@@H](N)CC(=O)O)[C@@H](C)CC)[C@@H](C)O)[C@@H](C)O)C(=O)N[C@H](C(=O)N[C@@H](Cc1ccccc1)C(=O)N[C@@H](C)C(=O)N[C@@H](CO)C(=O)N[C@H](C(N)=O)C(C)C)[C@@H](C)CC [compound 339] (H-DNPSLSIDLPQYLLRTLLELARTQSQRERAEQNAIIFASV-NH2)	≤ 6.00	≤ 7.00
CC[C@H](C)[C@H](NC(=O)[C@H](C)NC(=O)[C@H](CC(N)=O)NC(=O)[C@H](CCC(N)=O)NC(=O)[C@H](CCC(=O)O)NC(=O)[C@H](C)NC(=O)[C@H](CCCNC(=N)N)NC(=O)[C@H](CCC(=O)O)NC(=O)[C@H](CCCNC(=N)N)NC(=O)[C@H](CCC(N)=O)NC(=O)[C@H](CO)NC(=O)[C@H](CCC(N)=O)NC(=O)[C@@H](NC(=O)[C@H](CCCCN)NC(=O)[C@H](CCC(=O)O)NC(=O)[C@H](CC(C)C)NC(=O)[C@H](CCC(=O)O)NC(=O)[C@H](CC(C)C)NC(=O)[C@H](CC(C)C)NC(=O)[C@@H](NC(=O)[C@H](CCCNC(=N)N)NC(=O)[C@H](CC(C)C)NC(=O)[C@H](CC(C)C)NC(=O)[C@H](CCC(N)=O)NC(=O)[C@H](CC(C)C)NC(=O)[C@@H]1CCCN1C(=O)[C@H](CC(C)C)NC(=O)[C@H](CC(=O)O)NC(=O)[C@@H](NC(=O)[C@H](CO)NC(=O)[C@H](CC(C)C)NC(=O)[C@H](CO)NC(=O)[C@@H]1CCCN1C(=O)[C@H](CC(N)=O)NC(=O)[C@@H](N)CC(=O)O)[C@@H](C)CC)[C@@H](C)O)[C@@H](C)O)C(=O)N[C@H](C(=O)N[C@@H](Cc1ccccc1)C(=O)N[C@@H](C)C(=O)N[C@@H](CO)C(=O)N[C@H](C(N)=O)C(C)C)[C@@H](C)CC [compound 342] (H-DNPSLSIDLPLQLLRTLLELEKTQSQRERAEQNAIIFASV-NH2; N-terminus assumed)	≤ 6.00	7.69
CC[C@H](C)[C@H](N)C(=O)N[C@H](C(=O)N[C@@H](CC(C)C)C(=O)N[C@@H](CO)C(=O)N[C@@H](CC(C)C)C(=O)N[C@@H](CC(=O)O)C(=O)N[C@H](C(=O)N1CCC[C@H]1C(=O)N[C@H](C(=O)NCC(=O)N[C@@H](CC(C)C)C(=O)N[C@@H](CC(C)C)C(=O)N[C@@H](CCC(N)=O)C(=O)N[C@H](C(=O)N[C@@H](CC(C)C)C(=O)N[C@@H](CC(C)C)C(=O)N[C@@H](CCC(=O)O)C(=O)N[C@@H](CCCCN)C(=O)N[C@@H](C)C(=O)N[C@@H](C)C(=O)N[C@@H](C)C(=O)N[C@@H](CCC(=O)O)C(=O)N[C@@H](C)C(=O)N[C@@H](CCC(=O)O)C(=O)N[C@@H](C)C(=O)N[C@@H](C)C(=O)N[C@@H](C)C(=O)N[C@@H](CCCCN)C(=O)N[C@@H](C)C(=O)N[C@@H](C)C(=O)N[C@@H](CCC(N)=O)C(=O)N[C@@H](CCC(=O)O)C(=O)N[C@@H](CCC(N)=O)C(=O)N[C@H](C(=O)N[C@@H](CC(C)C)C(=O)N[C@@H](C)C(=O)N[C@@H](Cc1c[nH]cn1)C(=O)N[C@H](C(N)=O)C(C)C)[C@@H](C)CC)[C@@H](C)CC)[C@@H](C)CC)C(C)C)C(C)C [compound 366] (H-IVLSLDVPIGLLQILLEKAAAEAEAAAKAAQEQILAHV-NH2)	≤ 6.00	≤ 7.00
CC[C@H](C)[C@H](N)C(=O)N[C@H](C(=O)N[C@@H](CC(C)C)C(=O)N[C@@H](CO)C(=O)N[C@@H](CC(C)C)C(=O)N[C@@H](CC(=O)O)C(=O)N[C@H](C(=O)N1CCC[C@H]1C(=O)N[C@H](C(=O)NCC(=O)N[C@@H](CC(C)C)C(=O)N[C@@H](CC(C)C)C(=O)N[C@@H](CCC(N)=O)C(=O)N[C@H](C(=O)N[C@@H](CC(C)C)C(=O)N[C@@H](CC(C)C)C(=O)N[C@@H](CCC(=O)O)C(=O)N[C@@H](CCC(N)=O)C(=O)N[C@@H](C)C(=O)N[C@@H](CCCNC(=N)N)C(=O)N[C@@H](Cc1c[nH]cn1)C(=O)N[C@@H](C)C(=O)N[C@@H](Cc1c[nH]cn1)C(=O)N[C@@H](C)C(=O)N[C@@H](Cc1c[nH]cn1)C(=O)N[C@@H](C)C(=O)N[C@@H](Cc1c[nH]cn1)C(=O)N[C@@H](C)C(=O)N[C@@H](Cc1c[nH]cn1)C(=O)N[C@@H](C)C(=O)N[C@@H](CCC(N)=O)C(=O)N[C@@H](C)C(=O)N[C@@H](Cc1c[nH]cn1)C(=O)N[C@H](C(=O)N[C@@H](CC(C)C)C(=O)N[C@@H](C)C(=O)N[C@@H](Cc1c[nH]cn1)C(=O)N[C@H](C(N)=O)C(C)C)[C@@H](C)CC)[C@@H](C)CC)[C@@H](C)CC)C(C)C)C(C)C [compound 369] (H-IVLSLDVPIGLLQILLEQARHAHAHAHAHAQAHILAHV-NH2)	≤ 6.00	≤ 7.00
